Where “and” joins values, the source holds several entries; their conditions need not be identical. Equal entries are not always repeated.
Assays:
[1] = test system: BSAP and PICP serum levels, NTX urine levels; experiment: Example 1 clinical trial of rhPTH(1-34) in postmenopausal women: markers of bone formation and resorption; format: in vivo, human
Protocol: (§1) • Number of Subjects: • rhPTH(1-34): 1093 enrolled, 848 finished. • Placebo: 544 enrolled, 447 finished. • Diagnosis and Inclusion Criteria: Women ages 30 to 85 years, postmenopausal for a minimum of 5 years, with a minimum of one moderate or two mild atraumatic vertebral fractures. • Dosage and Administration: • Test Product (blinded) • rhPTH(1-34): 20 μg/day, given subcutaneously • rhPTH(1-34): 40 μg/day, given subcutaneously • Reference Therapy (blinded) • Placebo study material for injection • Duration of Treatment: • rhPTH(1-34): 17-23 months (excluding 6-month run-in phase) • Placebo: 17-23 months (excluding 6-month run-in phase) • Criteria for Evaluation: Spine x-ray; serum biological markers (calcium, bone-specific alkaline phosphatase, procollagen I carboxy-terminal propeptide); urine markers (calcium, N-telopeptide, free deoxypyridinoline); 1,25-dihydroxyvitamin D; bone mineral density: spine, hip, wrist, and total body: height; population pharmacokinetics; bone biopsy (selected study sites).
Measures of BSAP, PICP, and NTX levels were determined for each patient through the course of therapy, for example, at 0, 1, 3, 6, 12, 21 and 24 months after the initiation of administration of parathyroid hormone. Parathyroid hormone treatment was discontinued after 17-23 months. The percent change (relative to the initial “0” month levels) for each marker was determined for each patient and is reported in the Figures. The overall changes observed in the 20 μg/day PTH-treated patient population, the 40 μg/day PTH-treated treated patient population, and the placebo patient population were determined by methods known to those of skill in the arts.

[2] = Post-hoc estimates of AUC from the pharmacokinetic model (systemic exposure); settings: human, in vivo, subcutaneous
Description: In order to explore the relationship between concentration and the effect on spine BMD, a pharmacokinetic/pharmacodynamic model was developed. This relationship was best described by a sigmoid Emax model with AUC50 estimated at 170 pg·hr/mL.

[3] = test system: men with primary osteoporosis; experiment: Example 5 study GHAJ: bone densitometry (BMD, BMC) in men; format: in vivo, human; settings: for Distal Radius (Forearm) BMD, mean change from baseline to endpoint / Distal Radius (Forearm) BMD, mean percent change from baseline to endpoint / Ultradistal Radius (Forearm) BMD, mean change from baseline to endpoint / Ultradistal Radius (Forearm) BMD, mean percent change from baseline to endpoint / Whole body BMD, mean change from baseline to endpoint: subset of patients; for increase in lumbar spine BMD compared to placebo at endpoint: median follow-up approximately 11 months
Protocol: Four hundred thirty seven men with primary osteoporosis were enrolled in the study. Approximately one-third of die patients were randomly assigned to LY333334 40 μg/day plus calcium and vitamin D, one-third of the patients were randomly assigned to LY333334 20 μg/day plus calcium and vitamin D, and one-third of the patients were randomly assigned to placebo plus calcium and vitamin D. • Number of Subjects: • PTH: Male 437, Female 0, Total 437; • LY333334 20 μg: Male: Total 151. • LY333334 40 μg: Male: Total 139. • Placebo: Male: Total 147. • Diagnosis and Inclusion Criteria: The study patients were men with primary osteoporosis, aged 30 to 85 years, inclusive. L-2 to L-4 vertebrae must have been intact without artifacts, crush fracture or other abnormalities which would have interfered with the analysis of the posterior-anterior lumbar spine bone mineral density (BMD) measurement which must have been at least 2.0 SD below that of young, healthy men. […] Patient Demographic and Other Baseline Characteristics

[4] = test system: postmenopausal osteoporotic women; experiment: GHAC efficacy trial (intent to treat BMD, fractures); format: in vivo, human; settings: 20 μg/day, 21 months
Protocol: as §1
Population pharmacodynamic analyses were undertaken to evaluate the time course of the relationships between efficacy measures and LY333334 dose or LY333334 concentrations. […] As a part of this assessment, a population placebo-response model describing the change in BMD in patients randomly assigned to placebo (supplemented with calcium and vitamin D) was first developed. […]

[5] = test system: postmenopausal osteoporotic women; settings: GHAC efficacy trial, disclosed in PCT/US99/18961; cited from earlier work
[6] = about 5-6 weeks following termination, about 21-24 months after initiation

In the case of `CC[C@H](C)[C@H](NC(=O)[C@H](CCC(=O)O)NC(=O)[C@H](CO)NC(=O)[C@@H](NC(=O)[C@@H](N)CO)C(C)C)C(=O)N[C@@H](CCC(N)=O)C(=O)N[C@@H](CC(C)C)C(=O)N[C@@H](CCSC)C(=O)N[C@@H](Cc1cnc[nH]1)C(=O)N[C@@H](CC(N)=O)C(=O)N[C@@H](CC(C)C)C(=O)NCC(=O)N[C@@H](CCCCN)C(=O)N[C@@H](Cc1cnc[nH]1)C(=O)N[C@@H](CC(C)C)C(=O)N[C@@H](CC(N)=O)C(=O)N[C@@H](CO)C(=O)N[C@@H](CCSC)C(=O)N[C@@H](CCC(=O)O)C(=O)N[C@@H](CCCN=C(N)N)C(=O)N[C@H](C(=O)N[C@@H](CCC(=O)O)C(=O)N[C@@H](Cc1c[nH]c2ccccc12)C(=O)N[C@@H](CC(C)C)C(=O)N[C@@H](CCCN=C(N)N)C(=O)N[C@@H](CCCCN)C(=O)N[C@@H](CCCCN)C(=O)N[C@@H](CC(C)C)C(=O)N[C@@H](CCC(N)=O)C(=O)N[C@@H](CC(=O)O)C(=O)N[C@H](C(=O)N[C@@H](Cc1cnc[nH]1)C(=O)N[C@@H](CC(N)=O)C(=O)N[C@@H](Cc1ccccc1)C(=O)O)C(C)C)C(C)C` [LY333334], the “percent change in PICP serum levels during treatment” value ([1]; 20 μg/day and 40 μg/day PTH, FIG. 2) is reported as “reached a peak within about one or two months”, the “percent change in NTX urine levels during treatment” value ([1]; 20 μg/day and 40 μg/day PTH, FIG. 3) is reported as “increased steadily until about 12 months after treatment initiation” and the “BSAP level after termination of PTH treatment” value [1, 6] is reported as “returned to a level at or slightly higher than placebo control levels”. For the same compound, the “PICP level after termination of PTH treatment” value [1, 6] was “returned to a level about the same as placebo controls”, the “percent change in NTX levels after termination of PTH treatment” value ([1]; about 21-24 months after initiation) was “declined and returned to levels similar to those observed in the placebo treated group” and the AUC ([2]; 20 ug) was 0.365 ng·h/mL. The AUC ([2]; 40 ug) was 0.576 ng·h/mL, the “patients with a decrease in vertebral BMD at study endpoint” value ([3]; 20 μg) was 7.1% and the “increase in whole body BMC compared with the placebo group” value ([3]; 20 μg group) was “approximately 0.9%”. For the same compound, the “Femoral Neck BMD, mean change from baseline to endpoint” value ([3]; 20 μg/day) was 0.01 ± 0.03 g/cm^2, the “Femoral Neck BMD, mean percent change from baseline to endpoint” value ([3]; 20 μg/day) was 1.4% and 1.44% and 1.44 ± 3.61% and the “Intertrochanter BMD, mean change from baseline to endpoint” value ([3]; 20 μg/day) was 0.01 ± 0.03 g/cm^2. The “Intertrochanter BMD, mean percent change from baseline to endpoint” value ([3]; 20 μg/day) was 1.20 ± 3.07%, the “Lumbar Spine (L-1 through L-4) BMD, mean change from baseline to endpoint” value ([3]; 20 μg/day) was 0.05 ± 0.04 g/cm^2 and the “Lumbar Spine (L-1 through L-4) BMD, mean percent change from baseline to endpoint” value ([3]; 20 μg/day) was 5.7% and 5.73% and 5.73 ± 4.46%. The “Total Hip BMD, mean change from baseline to endpoint” value ([3]; 20 μg/day) was 0.01 ± 0.02 g/cm^2, the “Total Hip BMD, mean percent change from baseline to endpoint” value ([3]; 20 μg/day) was 1.14% and 1.14 ± 2.89% and the “Trochanter BMD, mean change from baseline to endpoint” value ([3]; 20 μg/day) was 0.01 ± 0.03 g/cm^2. For the same compound, the “Trochanter BMD, mean percent change from baseline to endpoint” value ([3]; 20 μg/day) was 1.25 ± 4.15%, the “Ward's Triangle BMD, mean change from baseline to endpoint” value ([3]; 20 μg/day) was 0.01 ± 0.04 g/cm^2 and the “Ward's Triangle BMD, mean percent change from baseline to endpoint” value ([3]; 20 μg/day) was 2.48 ± 7.20%. For the same compound, the “increase in hip (femoral neck) BMC at study endpoint” value ([3]; 20 μg/day) was 1%, the “increase in lumbar spine BMC at study endpoint” value ([3]; 20 μg/day) was 7% and the “Distal Radius (Forearm) BMD, mean change from baseline to endpoint” value ([3]; 20 μg/day) was −0.00 ± 0.02 g/cm^2. The “Distal Radius (Forearm) BMD, mean percent change from baseline to endpoint” value ([3]; 20 μg/day) was −0.47 ± 2.21%, the “Ultradistal Radius (Forearm) BMD, mean change from baseline to endpoint” value ([3]; 20 μg/day) was −0.00 ± 0.01 g/cm^2 and the “Ultradistal Radius (Forearm) BMD, mean percent change from baseline to endpoint” value ([3]; 20 μg/day) was −0.40 ± 3.15%. For the same compound, the “Whole body BMD, mean change from baseline to endpoint” value ([3]; 20 μg/day) was 0.01 ± 0.03 g/cm^2, the “patients with a decrease in vertebral BMD at study endpoint” value ([3]; 40 μg) was 6.2% and the “decrease in distal ⅓ radius (forearm) BMD compared with the placebo group” value ([3]; 40 μg group) was 1.0%. The “increase in whole body BMC compared with the placebo group” value ([3]; 40 μg group) was 1.3%, the “Femoral Neck BMD, mean change from baseline to endpoint” value ([3]; 40 μg/day) was 0.02 ± 0.04 g/cm^2 and the “Femoral Neck BMD, mean percent change from baseline to endpoint” value ([3]; 40 μg/day) was 2.9% and 2.85% and 2.85 ± 6.07%. For the same compound, the “Intertrochanter BMD, mean change from baseline to endpoint” value ([3]; 40 μg/day) was 0.02 ± 0.04 g/cm^2, the “Intertrochanter BMD, mean percent change from baseline to endpoint” value ([3]; 40 μg/day) was 2.32 ± 4.57% and the “Lumbar Spine (L-1 through L-4) BMD, mean change from baseline to endpoint” value ([3]; 40 μg/day) was 0.07 ± 0.05 g/cm^2. The “Lumbar Spine (L-1 through L-4) BMD, mean percent change from baseline to endpoint” value ([3]; 40 μg/day) was 8.8% and 8.75% and 8.75 ± 6.25%, the “Total Hip BMD, mean change from baseline to endpoint” value ([3]; 40 μg/day) was 0.02 ± 0.03 g/cm^2 and the “Total Hip BMD, mean percent change from baseline to endpoint” value ([3]; 40 μg/day) was 2.33% and 2.33 ± 4.51%. For the same compound, the “Trochanter BMD, mean change from baseline to endpoint” value ([3]; 40 μg/day) was 0.01 ± 0.03 g/cm^2, the “Trochanter BMD, mean percent change from baseline to endpoint” value ([3]; 40 μg/day) was 1.98 ± 5.16% and the “Ward's Triangle BMD, mean change from baseline to endpoint” value ([3]; 40 μg/day) was 0.03 ± 0.05 g/cm^2. For the same compound, the “Ward's Triangle BMD, mean percent change from baseline to endpoint” value ([3]; 40 μg/day) was 6.19 ± 10.21%, the “increase in hip (femoral neck) BMC at study endpoint” value ([3]; 40 μg/day) was 3% and the “increase in lumbar spine BMC at study endpoint” value ([3]; 40 μg/day) was 10%. The “Distal Radius (Forearm) BMD, mean change from baseline to endpoint” value ([3]; 40 μg/day) was −0.01 ± 0.02 g/cm^2, the “Distal Radius (Forearm) BMD, mean percent change from baseline to endpoint” value ([3]; 40 μg/day) was −0.67 ± 2.36% and the “Ultradistal Radius (Forearm) BMD, mean change from baseline to endpoint” value ([3]; 40 μg/day) was 0.00 ± 0.02 g/cm^2. For the same compound, the “Ultradistal Radius (Forearm) BMD, mean percent change from baseline to endpoint” value ([3]; 40 μg/day) was 0.54 ± 5.98%, the “Whole body BMD, mean change from baseline to endpoint” value ([3]; 40 μg/day) was 0.01 ± 0.03 g/cm^2 and the “patients with an increase in lumbar spine BMD of 5% or more” value ([3]; 20-μg group) was 54.6%. For the same compound, the “lumbar spine BMD increase from baseline by visit” value (from here on “lumbar spine BMD increase”) ([3]; 20-μg group, Month 3) was 2.44%, the “lumbar spine BMD increase” value ([3]; 20-μg group, Month 6) was 4.29 and the “difference in lumbar spine BMD between treatment group and placebo” value ([3]; 20-μg group, Month 12) was 5.49%. For the same compound, the “lumbar spine BMD increase” value ([3]; 20-μg group, Month 12) was 6.07%, the “increase in lumbar spine BMD compared to placebo at endpoint” value ([3]; 20-μg/day) was 5% and the “lumbar spine BMD response in hypogonadal vs idiopathic subgroups” value ([3]; 20 and 40 μg) was “did not differ significantly”. For the same compound, the “patients with an increase in lumbar spine BMD of 5% or more” value ([3]; 40-μg group) was 70.5%, the “lumbar spine BMD increase” value ([3]; 40-μg group, Month 3) was 3.87% and the “lumbar spine BMD increase” value ([3]; 40-μg group, Month 6) was 6.33%. For the same compound, the “difference in lumbar spine BMD between treatment group and placebo” value ([3]; 40-μg group, Month 12) was 8.83%, the “lumbar spine BMD increase” value ([3]; 40-μg group, Month 12) was 9.41% and the “increase in lumbar spine BMD compared to placebo at endpoint” value ([3]; 40-μg/day) was 8%. The “distal ⅓ radius (forearm) and ultradistal radius BMD compared with the placebo group” value ([3]; both 20-μg and 40-μg groups) was “unchanged”, the “actual increase in femoral neck BMD from intent to treat analyses” value [4] was 2.8% and the “actual increase in spine BMD from intent to treat analyses” value [4] was 9.7%. The “incidence of new vertebral and non-vertebral fractures compared to placebo” value [5] was “reduced the incidence of new vertebral fractures and non-vertebral fractures”.

Reference: US20050255537A1, “Method for monitoring treatment with a parathyroid hormone” (priority 1999, published 2005)
